This is an account of results in patent publication US11986471B2, “Compounds and methods of use” (Tango Therapeutics, Inc., priority 2018, dated 2024).

The target in experiment [1] is T1, PRMT5 (Homo sapiens, UniProt O14744).
T1 construct: purchased Viva (custom protein)
Description: PRMT5 IC50 assay in the presence of SAM as cofactor. It counts as biochemical. The gist of the method: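 Results given as IC50 (μM), from which Ki follows by dividing by 1.5 in the SAM condition or by 13.5 in the MTA condition. The ratio of SAM Ki to MTA Ki indicates MTA-cooperative preference.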

The target of experiment [2] is T1, PRMT5. As to the kind of experiment: PRMT5 IC50 assay with no cofactor. It counts as biochemical. The gist of the method: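 Potency against PRMT5 is compared across cofactor states, where IC50 equals Ki×1.5 with SAM present and Ki×13.5 with MTA present.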
Experiment [3] deals with HAP1 MTAP-intact. As to the kind of experiment: SDMA in-cell western assay, HAP1 MTAP-intact cell line. The experiment is classed as cell-based. Particulars: Homo sapiens. The gist of the method:
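Using an MTAP-isogenic HAP1 cell pair, inhibition of SDMA formation is read by in-cell western and expressed as IC50. MTAP-selectivity is assigned where the ratio between lines reaches 3 fold or greater.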

The subject of experiment [4] is HAP1 MTAP-deleted. As to the kind of experiment: SDMA in-cell western assay, HAP1 MTAP-deleted cell line. The experiment is classed as cell-based. Particulars: for IC50: Homo sapiens, HAP1 MTAP-deleted cell line; for MTAP Intact/Deleted Ratio: IC50 ratio HAP1 MTAP-intact / HAP1 MTAP-deleted. The gist of the method:
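In-cell western for SDMA marks; MTAP-deleted (null) HAP1 background; values given as IC50.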

In experiment [5] the target is T1, PRMT5. As to the kind of experiment: PRMT5 IC50 assay in the presence of MTA as cofactor. The experiment is classed as biochemical. Particulars: for IC50: PRMT5, MTA as cofactor. A digest of the protocol:
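MTA-dependent versus SAM-dependent inhibition of human PRMT5 was assessed by IC50; conversion factors of 13.5 and 1.5 gave the corresponding Ki.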

The mark [6] stands for this setting: ratio between Ki in the presence of SAM and Ki in the presence of MTA.
Where [7] appears, read: ratio between the Ki in the presence of SAM and the Ki in the presence of MTA.

Each structure is given as a SMILES string. A value given as a limit tells only on which side of the number the result lay.

T1 sequence (O14744 whole entry): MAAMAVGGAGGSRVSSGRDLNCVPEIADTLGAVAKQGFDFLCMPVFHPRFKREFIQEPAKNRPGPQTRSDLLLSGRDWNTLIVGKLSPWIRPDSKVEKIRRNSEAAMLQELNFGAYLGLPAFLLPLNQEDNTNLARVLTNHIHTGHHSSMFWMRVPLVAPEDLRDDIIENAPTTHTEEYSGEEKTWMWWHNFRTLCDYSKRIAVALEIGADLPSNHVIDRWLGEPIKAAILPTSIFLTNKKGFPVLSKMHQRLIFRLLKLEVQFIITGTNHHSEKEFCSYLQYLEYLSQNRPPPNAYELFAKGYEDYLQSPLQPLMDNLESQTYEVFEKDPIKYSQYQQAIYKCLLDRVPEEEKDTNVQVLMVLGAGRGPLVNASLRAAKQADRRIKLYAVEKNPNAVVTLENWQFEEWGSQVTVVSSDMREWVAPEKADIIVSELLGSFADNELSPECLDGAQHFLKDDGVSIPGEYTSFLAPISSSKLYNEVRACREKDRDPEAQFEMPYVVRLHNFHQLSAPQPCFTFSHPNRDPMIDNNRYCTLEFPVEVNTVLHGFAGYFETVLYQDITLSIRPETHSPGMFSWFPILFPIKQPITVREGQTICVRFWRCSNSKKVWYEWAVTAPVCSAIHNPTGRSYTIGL
T1 sequence (Q9BQA1 whole entry partner): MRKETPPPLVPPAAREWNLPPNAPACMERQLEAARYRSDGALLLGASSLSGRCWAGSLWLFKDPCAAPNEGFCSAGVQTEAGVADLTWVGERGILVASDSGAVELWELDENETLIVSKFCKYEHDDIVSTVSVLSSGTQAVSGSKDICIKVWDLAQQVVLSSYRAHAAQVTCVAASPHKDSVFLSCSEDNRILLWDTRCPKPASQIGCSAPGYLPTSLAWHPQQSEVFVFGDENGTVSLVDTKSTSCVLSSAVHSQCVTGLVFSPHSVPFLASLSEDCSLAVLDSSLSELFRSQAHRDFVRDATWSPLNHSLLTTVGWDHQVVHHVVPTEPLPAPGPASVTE

On to `O=C(NC[C@H](O)CN1CCc2c(ccc(OCc3cnco3)c2Cl)C1)c1cc(NC2CCCC2)ncn1` [Compound 336, (S)—N-(3-(5-chloro-6-(oxazol-5-ylmethoxy)-3,4-dihydroisoquinolin-2(1H)-yl)-2-hydroxypropyl)-6-(cyclopentylamino)pyrimidine-4-carboxamide], for which the IC50 – broadly, the concentration at which inhibition is half-maximal – is 500 to 5000 nM in experiment [1]; no less than 5000 nM in experiment [2] (read-out: No Co-factor IC50); no less than 10000 nM in experiment [3]; no less than 10000 nM in experiment [4]; 500 to 5000 nM in experiment [5]. The “MTAP Intact/Deleted Ratio” value in experiment [4] was “C* (an IC50 ratio of less than 3 fold between the IC50 in the HAP1 MTAP-intact cell line and the HAP1 MTAP-deleted cell line)”. Also, the “SAM/MTA Ratio” value in experiment [5] (setting [6]) is “A (a Ki ratio greater than or equal to 10 fold between the Ki in the presence of SAM and the Ki in the presence of MTA)”.
As for `CC(=O)N(C)[C@H]1CC[C@H](Nc2cc(C(=O)NC[C@H](O)CN3CCc4c(ccc(OCc5cnco5)c4C)C3)ncn2)CC1` [Compound 605, N-[(2S)-2-hydroxy-3-{5-methyl-6-[(1,3-oxazol-5-yl)methoxy]-1,2,3,4-tetrahydroisoquinolin-2-yl}propyl]-6-{[(1r,4r)-4-(N-methylacetamido)cyclohexyl]amino}pyrimidine-4-carboxamide], the IC50 is 50 to 500 nM in experiment [1]; no less than 5000 nM in experiment [2]; no less than 10000 nM in experiment [3]; 1000 to 10000 nM in experiment [4]; 50 to 500 nM in experiment [5]. Besides, the “MTAP Intact/Deleted Ratio” value in experiment [4] is “B* (an IC50 ratio greater than or equal to 3 fold but lower than 10 fold between the IC50 in the HAP1 MTAP-intact cell line and the HAP1 MTAP-deleted cell line)”. Besides, the “SAM/MTA Ratio” value in experiment [5] (setting [7]) was “A (a Ki ratio greater than or equal to 10 fold between the Ki in the presence of SAM and the Ki in the presence of MTA)”.
For the molecule `CC(=O)N1CCC(Nc2cc(C(=O)NC[C@H](O)CN3CCc4c(ccc(OCc5cn[nH]c5)c4Cl)C3)ncn2)CC1` [Compound 261, 6-[(1-acetyl-4-piperidyl)amino]-N-[(2S)-3-[5-chloro-6-(1H-pyrazol-4-ylmethoxy)-3,4-dihydro-1H-isoquinolin-2-yl]-2-hydroxy-propyl]pyrimidine-4-carboxamide], the IC50 in experiment [1] is 50 to 500 nM; in experiment [2] (read-out: No Co-factor IC50) it was 500 to 5000 nM; in experiment [3] it was less than 1000 nM; in experiment [4], 1000 to 10000 nM; in experiment [5] it was 50 to 500 nM. Further, in experiment [4], the “MTAP Intact/Deleted Ratio” value is “C* (an IC50 ratio of less than 3 fold between the IC50 in the HAP1 MTAP-intact cell line and the HAP1 MTAP-deleted cell line)”. The “SAM/MTA Ratio” value in experiment [5] (setting [6]) is “A (a Ki ratio greater than or equal to 10 fold between the Ki in the presence of SAM and the Ki in the presence of MTA)”.
Turning to `CCC(=O)N1CCN(c2cc(C(=O)NC[C@H](O)CN3CCc4c(ccc(OCc5ocnc5C)c4C)C3)cc(NC3CCC3)n2)CC1` [Compound 417, 2-(cyclobutylamino)-N-[(2S)-2-hydroxy-3-{5-methyl-6-[(4-methyl-1,3-oxazol-5-yl)methoxy]-1,2,3,4-tetrahydroisoquinolin-2-yl}propyl]-6-(4-propanoylpiperazin-1-yl)pyridine-4-carboxamide], the IC50 in experiment [1] is 50 to 500 nM; in experiment [2] (read-out: No Co-factor IC50), 500 to 5000 nM; in experiment [3] it was no less than 10000 nM; in experiment [4] it was less than 1000 nM; in experiment [5] it was 50 to 500 nM. The “MTAP Intact/Deleted Ratio” value in experiment [4] was “A* (an IC50 ratio greater than or equal to 10 fold between the IC50 in the HAP1 MTAP-intact cell line and the HAP1 MTAP-deleted cell line)”. The “SAM/MTA Ratio” value in experiment [5] (setting [6]) was “A (a Ki ratio greater than or equal to 10 fold between the Ki in the presence of SAM and the Ki in the presence of MTA)”.
`CCN1CCN(c2cc(C(=O)NC[C@H](O)CN3CCc4cc(OCc5cnco5)ccc4C3)cc(NC3CCC3)n2)CC1` [Compound 286]: the IC50 in experiment [1] was in the range of 50 to 500 nM; in experiment [2] (read-out: No Co-factor IC50), 500 to 5000 nM; in experiment [3] it was 1000 to 10000 nM; in experiment [4], 1000 to 10000 nM; in experiment [5] it was 50 to 500 nM. Besides, the “MTAP Intact/Deleted Ratio” value in experiment [4] was “B* (an IC50 ratio greater than or equal to 3 fold but lower than 10 fold between the IC50 in the HAP1 MTAP-intact cell line and the HAP1 MTAP-deleted cell line)”. For the same molecule, the “SAM/MTA Ratio” value in experiment [5] (setting [6]) is “A (a Ki ratio greater than or equal to 10 fold between the Ki in the presence of SAM and the Ki in the presence of MTA)”.
`CCCN(C)c1cc(C(=O)NC[C@H](O)CN2CCc3cc(OCc4cnco4)ccc3C2)cc(NC2CCC2)n1` [Compound 415]: the IC50 was 50 to 500 nM in experiment [1]; 500 to 5000 nM in experiment [2] (read-out: No Co-factor IC50); 1000 to 10000 nM in experiment [3]; less than 1000 nM in experiment [4]; 50 to 500 nM in experiment [5]. Further, in experiment [4], the “MTAP Intact/Deleted Ratio” value was “C* (an IC50 ratio of less than 3 fold between the IC50 in the HAP1 MTAP-intact cell line and the HAP1 MTAP-deleted cell line)”. For the same molecule, in experiment [5] (setting [6]), the “SAM/MTA Ratio” value is “A (a Ki ratio greater than or equal to 10 fold between the Ki in the presence of SAM and the Ki in the presence of MTA)”.
With `CO[C@H]1CC[C@H](Nc2cc(C(=O)NC[C@H](O)CN3CCc4c(ccc(OCc5cnco5)c4C)C3)ncn2)CC1` [Compound 572, N-[(2S)-2-hydroxy-3-{5-methyl-6-[(1,3-oxazol-5-yl)methoxy]-1,2,3,4-tetrahydroisoquinolin-2-yl}propyl]-6-{[(1r,4r)-4-methoxycyclohexyl]amino}pyrimidine-4-carboxamide], the IC50 in experiment [1] is 500 to 5000 nM; in experiment [2], no less than 5000 nM; in experiment [3], no less than 10000 nM; in experiment [4], no less than 10000 nM; in experiment [5], 50 to 500 nM. Further, the “MTAP Intact/Deleted Ratio” value in experiment [4] is “C* (an IC50 ratio of less than 3 fold between the IC50 in the HAP1 MTAP-intact cell line and the HAP1 MTAP-deleted cell line)”. Besides, the “SAM/MTA Ratio” value in experiment [5] (setting [7]) is “A (a Ki ratio greater than or equal to 10 fold between the Ki in the presence of SAM and the Ki in the presence of MTA)”.
Consider `Cc1c(OCc2cnco2)ccc2c1CCN(C[C@@H](O)CNC(=O)c1ccnc(NC3CN(C(=O)C(C)C)C3)c1)C2` [Compound 550], for which the IC50 in experiment [1] was 50 to 500 nM; in experiment [2], no less than 5000 nM; in experiment [3], no less than 10000 nM; in experiment [4], no less than 10000 nM; in experiment [5] it was 50 to 500 nM. For the same molecule, the “MTAP Intact/Deleted Ratio” value in experiment [4] is “C* (an IC50 ratio of less than 3 fold between the IC50 in the HAP1 MTAP-intact cell line and the HAP1 MTAP-deleted cell line)”. In experiment [5] (setting [7]), the “SAM/MTA Ratio” value is “A (a Ki ratio greater than or equal to 10 fold between the Ki in the presence of SAM and the Ki in the presence of MTA)”.
`Cc1c(OCc2cnco2)ccc2c1CCN(C[C@@H](O)CNC(=O)c1ccnc(NC3CCC3C3CCC3)c1)C2` (stereo partly drawn) [Compound 476, 2-([1,1′-bi(cyclobutan)]-2-ylamino)-N—((S)-2-hydroxy-3-(5-methyl-6-(oxazol-5-ylmethoxy)-3,4-dihydroisoquinolin-2(1H)-yl)propyl)isonicotinamide]: the IC50 is 500 to 5000 nM in experiment [1]; no less than 5000 nM in experiment [2]; no less than 10000 nM in experiment [3]; no less than 10000 nM in experiment [4]; 50 to 500 nM in experiment [5]. For the same molecule, the “MTAP Intact/Deleted Ratio” value in experiment [4] is “C* (an IC50 ratio of less than 3 fold between the IC50 in the HAP1 MTAP-intact cell line and the HAP1 MTAP-deleted cell line)”. Moreover, in experiment [5] (setting [7]), the “SAM/MTA Ratio” value was “A (a Ki ratio greater than or equal to 10 fold between the Ki in the presence of SAM and the Ki in the presence of MTA)”.
In the case of `COc1ccc(C(=O)N2CCc3cc(C(=O)NC[C@H](O)CN4CCc5cc(OCc6ocnc6C)c(F)cc5C4)ccc3C2)cc1` [Compound 577, N-[(2S)-3-[7-fluoro-6-[(4-methyloxazol-5-yl)methoxy]-3N-dihydro-1H-isoquinolin-2-yl]-2-hydroxy-propyl]-2-(4-methoxybenzoyl)-3N-dihydro-1H-isoquinoline-6-carboxamide], the IC50 in experiment [1] is 50 to 500 nM; in experiment [2], 500 to 5000 nM; in experiment [3], 1000 to 10000 nM; in experiment [4], 1000 to 10000 nM; in experiment [5], 50 to 500 nM. Further, the “MTAP Intact/Deleted Ratio” value in experiment [4] is “B* (an IC50 ratio greater than or equal to 3 fold but lower than 10 fold between the IC50 in the HAP1 MTAP-intact cell line and the HAP1 MTAP-deleted cell line)”. Moreover, in experiment [5] (setting [7]), the “SAM/MTA Ratio” value was “A (a Ki ratio greater than or equal to 10 fold between the Ki in the presence of SAM and the Ki in the presence of MTA)”.
On to `O=C(NC[C@H](O)CN1CCc2c(ccc(OCc3cnco3)c2Cl)C1)c1ccnc(NC2CC3(C2)CC3(F)F)c1` (some centres unmarked) [Compound 441], for which the IC50 in experiment [1] was 50 to 500 nM; in experiment [2], 500 to 5000 nM; in experiment [3] it was no less than 10000 nM; in experiment [4], 1000 to 10000 nM; in experiment [5], 50 to 500 nM. Also, the “MTAP Intact/Deleted Ratio” value in experiment [4] was “C* (an IC50 ratio of less than 3 fold between the IC50 in the HAP1 MTAP-intact cell line and the HAP1 MTAP-deleted cell line)”. In experiment [5] (setting [7]), the “SAM/MTA Ratio” value was “A (a Ki ratio greater than or equal to 10 fold between the Ki in the presence of SAM and the Ki in the presence of MTA)”.
